What was measured:
[1] = target: T1, cystine/glutamate antiporter (Xc^−) (Homo sapiens, UniProt Q9UPY5); details: PET; healthy volunteers and patients with non-small cell lung cancer, hepatocellular carcinoma, brain tumors; cited from earlier work
T1 construct: from tissue; host or cells: Human tissues and tumours in vivo (healthy volunteers; patients with NSCLC, hepatocellular carcinoma or brain tumours)
T1 sequence (Q9UPY5 1-501): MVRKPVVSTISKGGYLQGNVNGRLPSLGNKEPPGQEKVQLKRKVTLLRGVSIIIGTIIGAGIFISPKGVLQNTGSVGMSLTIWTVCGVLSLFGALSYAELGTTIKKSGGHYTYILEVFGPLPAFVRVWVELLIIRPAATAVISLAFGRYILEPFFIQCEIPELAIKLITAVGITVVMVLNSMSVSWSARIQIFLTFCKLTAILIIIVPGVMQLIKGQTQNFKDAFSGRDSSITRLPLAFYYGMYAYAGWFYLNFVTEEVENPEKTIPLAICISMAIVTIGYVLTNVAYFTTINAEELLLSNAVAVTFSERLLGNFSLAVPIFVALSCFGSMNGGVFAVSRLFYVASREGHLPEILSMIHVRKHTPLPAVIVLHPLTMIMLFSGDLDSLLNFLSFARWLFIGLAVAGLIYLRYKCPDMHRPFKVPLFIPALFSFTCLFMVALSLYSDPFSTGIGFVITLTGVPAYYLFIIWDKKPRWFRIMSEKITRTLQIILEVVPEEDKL
T1 sequence (P08195 1-529 partner): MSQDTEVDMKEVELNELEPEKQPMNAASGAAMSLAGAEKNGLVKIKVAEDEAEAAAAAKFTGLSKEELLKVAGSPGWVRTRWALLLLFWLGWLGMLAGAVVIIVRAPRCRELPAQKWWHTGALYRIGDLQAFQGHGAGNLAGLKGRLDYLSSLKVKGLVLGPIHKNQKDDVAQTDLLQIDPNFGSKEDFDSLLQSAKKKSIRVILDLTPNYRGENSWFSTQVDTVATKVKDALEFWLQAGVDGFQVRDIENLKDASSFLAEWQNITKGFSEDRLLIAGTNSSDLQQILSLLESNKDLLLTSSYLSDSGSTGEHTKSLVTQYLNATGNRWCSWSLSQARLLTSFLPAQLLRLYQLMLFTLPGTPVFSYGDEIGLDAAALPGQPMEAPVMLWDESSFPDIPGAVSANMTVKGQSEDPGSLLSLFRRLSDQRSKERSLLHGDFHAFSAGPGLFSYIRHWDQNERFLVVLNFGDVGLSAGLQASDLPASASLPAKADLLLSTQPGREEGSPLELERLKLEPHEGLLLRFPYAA

[2] = Radiochemical purity on storage at room temperature (analytical reverse phase-HPLC); assay type: physicochemical; details: stored at room temperature, for 5 hours after end of synthesis (FIG. 3)
Experimental: The radiochemical purity of the [^18F]FSPG composition was tested at the end of synthesis and up to 5 hours after being stored at room temperature. Analytical reverse phase-HPLC was performed on an Agilent 1260 HPLC system equipped with a 1200 Series Diode Array Detector and a Raytest GABI Star NaI (TL) scintillation detector. The following process parameters were used: • Column: Phenomenex Luna C-18 (2) 250 mm×4.6 mm (5 μm) • Mobile Phase A: 40 μM aqueous disodium phosphate • Mobile Phase B: Acetonitrile/Methanol/Water (45:45:10) (% w/v) • Flow rate: 1.5 ml/min • Gradient: • Initial: 100% Mobile Phase A, 0% Mobile Phase B • 2 min: 96% Mobile Phase A, 4% Mobile Phase B • 5 min: 88% Mobile Phase A, 12% Mobile Phase B • 15 min: 88% Mobile Phase A, 12% Mobile Phase B • 20 min: 40% Mobile Phase A, 60% Mobile Phase B • 22 min: 0% Mobile Phase A, 100% Mobile Phase B • 24 min: 0% Mobile Phase A, 100% Mobile Phase B • 25 min: 100% Mobile Phase A, 0% Mobile Phase B • 30 min: 100% Mobile Phase A, 0% Mobile Phase B • Total Run Time: 35 minutes • UV detector: 340 nm • [^18F]FSPG solution (80 μl) was mixed with o-phthaldialdehyde reagent solution (20 μl). The mixture sat for 1 min prior to the HPLC analysis.

## N[C@@H](C[C@H](CCC[18F])C(=O)O)C(=O)O [[^18F]FSPG, (S)-4-(3-^18F-fluoropropyl)-L-glutamic acid]
[1]
  background uptake: low background uptake in the brain, lung, and bowel
[2]
  radiochemical purity maintained: > 95%

Source: US20260184667A1, “CGMP-COMPLIANT AUTOMATED [18F]FSPG PRODUCTION FOR CLINICAL EXAMINATION” (BOARD OF REGENTS, THE UNIVERSITY OF TEXAS SYSTEM, priority 2022, published 2026)
